We go through 27 molecules from ChEMBL document CHEMBL4325854, “Synthetic small molecules as anti-biofilm agents in the struggle against antibiotic resistance” (Eur J Med Chem, 2019).

In assay [1] the test system is Staphylococcus aureus. Description: Antibiofilm activity against Staphylococcus aureus at 100 uM relative to control. It counts as functional.
The target in assay [2] is T1, Sortase A (Staphylococcus aureus, UniProt Q9S446).
T1 sequence (Q9S446 whole entry): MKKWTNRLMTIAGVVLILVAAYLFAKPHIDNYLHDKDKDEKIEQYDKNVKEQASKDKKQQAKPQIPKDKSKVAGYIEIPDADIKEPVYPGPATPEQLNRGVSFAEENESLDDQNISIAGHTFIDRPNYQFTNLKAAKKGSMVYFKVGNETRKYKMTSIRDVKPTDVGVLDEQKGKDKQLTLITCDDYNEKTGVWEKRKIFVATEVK
Description: Inhibition of Staphylococcus aureus SrtA.

Assay [3] has as its system Staphylococcus aureus. Description: Antibiofilm activity against Staphylococcus aureus ATCC 29213. The class given is functional, organism-based.
Assay [4] concerns Pseudomonas aeruginosa. Description: Antibiofilm activity against Pseudomonas aeruginosa PA14 assessed as inhibition of biofilm dispersion. The class given is functional, organism-based.
For assay [5], the system named is Pseudomonas aeruginosa. Description: Antibiofilm activity against Pseudomonas aeruginosa PAO1 assessed as inhibition of biofilm dispersion. It counts as functional, organism-based.
Assay [6] deals with Staphylococcus aureus. Description: Antibiofilm activity against methicillin-resistant Staphylococcus aureus ATCC BAA-44. The class given is functional, organism-based.
In assay [7] the test system is Staphylococcus aureus. Description: Antibiofilm activity against Staphylococcus aureus ATCC 29213 at 25 ug/ml relative to control. It counts as functional.
Assay [8] concerns Staphylococcus epidermidis. Description: Antibiofilm activity against Staphylococcus epidermidis at 25 ug/ml relative to control. The class given is functional.
Assay [9] deals with Acinetobacter baumannii. Description: Antibiofilm activity against Acinetobacter baumannii preformed biofilms. The class given is functional, organism-based.
In assay [10] the test system is Staphylococcus aureus. Description: Antibiofilm activity against methicillin-resistant Staphylococcus aureus. The class given is functional, organism-based. The following applies: Staphylococcus aureus.
Assay [11] has as its system Enterococcus faecalis. Description: Antibiofilm activity against Enterococcus faecalis ATCC 29212. It counts as functional.
The test system of assay [12] is Staphylococcus aureus. Description: Antibiofilm activity against Staphylococcus aureus BAA-1026. It counts as functional.
Assay [13] deals with Bordetella bronchiseptica. Description: Antibiofilm activity against Bordetella bronchiseptica RB50 assessed as inhibition of biofilm dispersion. It counts as functional, organism-based.
Assay [14] deals with Staphylococcus aureus. Description: Antibiofilm activity against methicillin-resistant Staphylococcus aureus isolate 2. It counts as functional.
Assay [15] relates to Staphylococcus aureus. Description: Antibiofilm activity against methicillin-resistant Staphylococcus aureus BAA-1707. It counts as functional.

Take `CC(=O)/C(=N\Nc1ccccc1)C(=O)O`: the Activity in assay [1] was 39.2 - 68.3%. In addition, in assay [2], the IC50 was 50 to 92 µM.
As to `CCOC(=O)/C(=N/Nc1ccc(Cl)c(Cl)c1)C(=O)c1cc(C)nn1CC`, the IC50 in assay [3] turned out to be 1700 nM.
`Cc1cc(C(=O)/C(=N\Nc2ccc(Cl)c(Cl)c2)C(=O)O)no1` returned an IC50 in [3] of 800 nM.
For the molecule `CCCCCCNC(=O)CCCc1c[nH]c(N)n1`, the concentration for half-maximal inhibition (IC50) in assay [4] was found to be 39.9 µM; in assay [5], 32.7 µM.
Regarding `O=C1NC(C(Cl)(Cl)Cc2ccccc2)O/C1=C\c1ccc(C(F)(F)F)cc1` (stereo unspecified), the IC50 in assay [6] was found to be 1200 nM.
With `CC(=O)/C(C#N)=N\Nc1ccccc1`, in [1], the Activity is 39.2 - 68.3%. The half-maximal inhibitory concentration (IC50) in [2] lay within 50 to 92 µM.
Turning to `Cc1nn(C)c([N-]C(=O)c2ccc(Cl)cc2)c1[N+]#N`, the Activity in assay [7] and in assay [8] was 69 - 96% throughout.
Turning to `CCCCOc1ccc(/C=C(\C)Cn2cc(CCCCCc3c[nH]c(N)n3)nn2)cc1`, the EC50 in assay [9] lay in the range of 44.7 to 59.6 µM; in assay [10], 4.5 to 9.8 µM.
On to `Cc1nn(C)c([N-]C(=O)c2ccc(Cl)cc2Cl)c1[N+]#N`, for which the Activity in assay [7] and in assay [8] was 69 - 96% throughout.
For `CC(=O)/C(=N\Nc1ccc([N+](=O)[O-])cc1)C(=O)O`, the Activity in assay [1] is recorded as 39.2 - 68.3%. In assay [2], this molecule displayed an IC50 of 50 to 92 µM.
For the molecule `COc1ccc(-c2csc(-c3ccc(-c4csc(-c5ccccc5)n4)cc3)n2)cc1`, the MBEC in assay [11] stood at 4 µg/mL; in [12], 62 µg/mL.
As to `Nc1nc(CCCNC(=O)c2cc(Br)c(Br)n2-c2ccc(Br)cc2)c[nH]1`, the concentration for half-maximal inhibition (IC50) in assay [4] turned out to be 16.4 µM; in [13], 29.3 µM.
Consider `N#Cc1ccc(-c2csc(-c3ccc(-c4csc(-c5ccccc5)n4)cc3)n2)cc1`, for which the MBEC stood at 2 µg/mL in assay [11] and 250 µg/mL in [12].
With `C/C(=C\c1cccc2ccccc12)Cn1cc(CCCCCc2c[nH]c(N)n2)nn1`, the concentration for a half-maximal effect (EC50) in assay [9] fell in the range of 44.7 to 59.6 µM; in [10], 4.5 to 9.8 µM.
Turning to `Nc1nc(CCCNC(=O)c2cc(Br)c(Br)n2CCc2ccccc2)c[nH]1`, the 50% inhibitory concentration (IC50) in assay [4] worked out at 22.9 µM; in [13] it was 22.5 µM.
Consider `NC(=O)c1cc(-c2csc(-c3ccc(-c4csc(-c5ccccc5)n4)cc3)n2)ccc1O`, for which the MBEC in assay [11] stood at 8 µg/mL; in assay [12] it was 250 µg/mL.
Regarding `COc1cc(N/N=C(\C(C)=O)C(=O)O)cc(OC)c1OC`, in assay [1], the Activity is 39.2 - 68.3%. The same molecule came in with an IC50 in assay [2] of 50 to 92 µM.
With `CCCCCCCCNC(=O)CCCc1c[nH]c(N)n1`, the results for the IC50 in assay [4] and in assay [5] were 13.3 µM and 18.4 µM, respectively.
For the molecule `Cc1ccc2c(Br)cc(Br)c(O)c2n1` [BROQUINALDOL], the values for the MBEC in assay [14] and in assay [15] were 188 µM and 93 µM, respectively.
As for `c1ccc(-c2nc(-c3ccc(-c4nc(-c5cccc6ccccc56)cs4)cc3)cs2)cc1`, the values for the MBEC in [11] and in assay [12] were 4 µg/mL and 250 µg/mL, respectively.
Take `c1ccc(-c2csc(-c3ccc(-c4csc(-c5ccccc5)n4)cc3)n2)cc1`: the MBEC was found to be 2 µg/mL in assay [11] and 1000 µg/mL in [12].
Take `CC(=O)/C(=N\Nc1ccc(Cl)c(Cl)c1)C(=O)O`: the Activity in assay [1] was 39.2 - 68.3%. Further, in assay [2], the IC50 is 50 to 92 µM.
For `Cc1sc(-c2ccc(-c3csc(-c4ccccc4)n3)cc2)nc1-c1ccccc1`, the MBEC is 4 µg/mL in assay [11] and 1000 µg/mL in assay [12].
Regarding `CC(=O)/C(=N\Nc1cccc(Cl)c1)C(=O)O`, the Activity in [1] is given as 39.2 - 68.3%. This molecule gave an IC50 in assay [2] of 50 to 92 µM.
For the molecule `CCCCOc1ccc(Br)c(/C=C(\C)Cn2cc(CCCCCc3c[nH]c(N)n3)nn2)c1F`, the figures for the EC50 in assay [9] and in assay [10] were 44.7 to 59.6 µM and 4.5 to 9.8 µM, respectively.
`CCCc1ccc(-c2[nH]c(N)nc2CCCCCc2cn(C/C(C)=C/c3ccccc3)nn2)cc1`: the values for the IC50 in assay [9] and in assay [10] were 11.3 µM and 1420 nM, respectively.
As to `CCCCCCCCCCNC(=O)CCCc1c[nH]c(N)n1`, the values for the half-maximal inhibitory concentration (IC50) in [4] and in assay [5] were 6 µM and 8 µM, respectively.

What is called IC50 is the point on the concentration scale where inhibition reaches its midpoint. What is called EC50 is the concentration needed to bring the measured effect to its halfway point. A high value points to a need for much substance.
